Source: patent publication US8722014B2, “1 H-[1, 2, 3] triazole substituted amino acids and uses thereof” (Washington University, priority 2009, dated 2014)
Values joined by “and” are separate entries in the source; they are usually repeats but may differ in a detail not shown here. Identical values can stand only once. Like-named read-outs stand apart in the source and are kept apart here.

Key:
9L gliosarcoma cells = experiment: Cell uptake assay in 9L gliosarcoma cells with amino acid transport inhibitors (cluster tray method); type: cell-based; conditions: for percent uptake relative to control, Na ASC: L-Ala/L-Ser/L-Cys 3.3 mM each
Method: The 9L gliosarcoma tumor is an established model for human glioblastoma (brain tumor). Cell uptake assays were performed with 9L gliosarcoma cells using both (R)-[^18F]4 and (S)-[^18F]4. 9L gliosarcoma cells were cultured with Earle's minimal essential medium (MEM) augmented with 10% newborn calf serum, 1% 200 mM L-glutamine, 1% MEM vitamin solution and 1% 10 mM non-essential amino acids (NEAA). The cells were passaged every two to three days prior to use with no more than a total of 20 passages. Two to three days before the uptake assays, suspension of 2.5 or 5.0×10^4 cells in culture media were aliquoted into Costar 24 well plates to achieve log growth phase with approximately 70% confluency at the time of the uptake assay (approximately 10^5 cells per well).
Cell uptake assays were performed using the cluster tray method reported in Gazzola et al., Anal. Biochem. 115: 368-374, 1981. Two buffers were used for the assays, a phosphate buffered saline solution and a sodium-free phosphate buffered choline chloride solution. […] The choline buffer was the same as the sodium buffer except choline chloride was substituted for sodium chloride and choline phosphate dibasic was substituted for sodium phosphate dibasic. A 250 mM solution of choline phosphate dibasic was prepared by boiling 95.6 mL of 75% of choline bicarbonate (0.500 mol) and 16.9 mL of 85% aqueous phosphoric acid (0.247 mol) in 750 mL of water for 60 min. The solution was brought to a total volume of 1 liter with water and brought to pH 7.4 with concentrated aqueous hydrochloric acid. The pH of the sodium and choline buffer solutions was adjusted to 7.4 with concentrated aqueous hydrochloric acid prior to use.
A variety of inhibitor conditions were used to determine which amino acid transport system or systems were responsible for cellular uptake of (R)- and (S)-[^18F]-4. The N-methylated amino acid, methylaminoisobutyric acid (MeAIB), is a selective system A substrate and has been used extensively as a competitive inhibitor of system A transport (Shotwell, M. A., et al. Biochem. Biophys. Acta. 737: 267-284, 1983; Christensen, H. N., et al., J. Biol. Chem. 240: 3609-3616, 1965) The bulky neutral amino acid, 2-aminobicyclo-(2,2,1)-heptane-2-carboxylic acid (BCH), has been extensively used as a competitive inhibitor of system L transport, and under sodium-free conditions BCH is a selective system L inhibitor (Palacin, M., et al., Physiol. Rev. 78: 969-1054, 1998. In the presence of sodium, BCH is also an inhibitor of system B^0,+ which is a sodium-dependent amino acid transporter that typically is a minor transport systems in most tissues. A mixture of L-alanine (L-Ala), L-serine (L-Ser) and L-cysteine (L-Cys), (ASC), was used as a non-specific inhibitor condition, and this combination of amino acids is expected to inhibit a broad range of amino acid transport systems including system ASC. Because of the results of initial cell uptake assays described below and the structural relationship of the 1H-1,2,3-triazole group to the imidazole side chain of L-histidine (L-His), additional uptake assays using L-His as well as the basic side chain amino acids L-arginine (L-Arg) and L-lysine (L-Lys) individually and together (RKH) as competitive inhibitors were performed.
The following inhibitors were added to the appropriate sodium or choline buffer: N-methyl aminoisobutyric acid (MeAIB, 10 mM), a mixture of L-alanine/L-serine/L-cysteine (ASC, 3.3 mM of each amino acid), (R,S)-(endo,exo)-2-aminobicyclo(2,2,1)-heptane-2-carboxylic acid (BCH, 10 mM), L-arginine (Arg, 10 mM), L-lysine (Lys, 10 mM), L-histidine (His, 10 mM) and a mixture of Arg/Lys/H is (RKH, 3.3 mM of each amino acid). For control conditions, 10 mM of sucrose was added to maintain consistent osmolality relative to the inhibitor conditions. The pH of each solution of inhibitor in buffer was adjusted as necessary to 7.40 with 3 M aqueous hydrochloric acid prior to use in cell uptake assays. […]

[1] = tested on: subcutaneous 9L gliosarcoma tumors
Method: Biodistribution studies were performed with both enantiomers, (R)-[^18F]4 and (S)-[^18F]4, using Fischer 344 rats (Charles River Laboratories, Wilmington Mass., USA) implanted with subcutaneous 9L gliosarcoma tumors. The tumors were implanted by subcutaneous injection of a suspension of approximately 1×10^69L gliosarcoma cells into the flanks of the rats. The tumors were allowed to grow for 3 weeks prior to the study. The rats were allowed food and water ad libitum prior to the biodistribution study. Anesthesia was achieved using a mixture of 1% isoflurane in oxygen, and the radiolabeled amino acid (R)-[^18F]4 or (S)-[^18F]4 was injected intravenously through a tail vein. The animals were euthanized in groups of four for each enantiomer at 5, 30 or 60 minutes after injection. The organs and tissues of interest and the tumors were dissected and weighed, and the amounts of activity were measured and decay corrected to the time of injection with a gamma counter. Standards for the doses were also measured with a gamma counter, and the data were normalized as the percent of total dose per gram of tissue (% ID/g) for each sample. The data were analyzed using GraphPad Prism software with 1-way ANOVAs for each enantiomer at each time point with Bonferroni post-tests. The tumor and brain uptake of radioactivity was directly compared for both enantiomers at each time point with a 2-way ANOVA with Bonferroni post-test. p-values less than or equal to 0.05 were considered statistically significant.

## Cl.N[C@H](Cc1cn(CC[18F])nn1)C(=O)O [(R)-[^18F]4, (R)-2-amino-3-[1-(2-fluoroethyl)-1H-[1,2,3]triazol-4-yl]propanoic acid hydrochloride salt-[^18F]]
9L gliosarcoma cells; neutral amino acid inhibitor assay, p<0.001
  inhibition of uptake by ASC condition relative to the sodium control: 36%
9L gliosarcoma cells; same uptake assays with inhibitors
  uptake mediated by system L or cationic amino acid transport systems: did not demonstrate significant uptake
9L gliosarcoma cells; second independent assay, p<0.01
  inhibition of uptake by ASC condition relative to the sodium control: 33%
9L gliosarcoma cells; sodium buffer, Arg/Lys/His 3.3 mM each (FIG. 4/6)
  percent uptake relative to control, Na RKH: 82±4%
9L gliosarcoma cells; sodium buffer, BCH 10 mM, 30 sec uptake, neutral amino acid inhibitor assay (FIG. 3/5)
  percent uptake relative to control, Na BCH: 110±11%
9L gliosarcoma cells; sodium buffer, 30 sec uptake, neutral amino acid inhibitor assay (FIG. 3/5)
  percent uptake relative to control, Na ASC: 64±6%
9L gliosarcoma cells; sodium buffer, basic side chain amino acid inhibitor assay (FIG. 4/6)
  percent uptake relative to control, Na ASC: 67±15%
9L gliosarcoma cells; sodium buffer, L-arginine 10 mM (FIG. 4/6)
  percent uptake relative to control, Na Arg: 83±7%
9L gliosarcoma cells; sodium buffer, L-histidine 10 mM (FIG. 4/6)
  percent uptake relative to control, Na His: 91±10%
9L gliosarcoma cells; sodium buffer, L-lysine 10 mM (FIG. 4/6)
  percent uptake relative to control, Na Lys: 104±8%
9L gliosarcoma cells; sodium buffer, MeAIB 10 mM, 30 sec uptake, neutral amino acid inhibitor assay (FIG. 3/5)
  percent uptake relative to control, Na MeAIB: 97±7%
9L gliosarcoma cells; sodium-free choline buffer, BCH 10 mM, relative to sodium control (FIG. 3/5)
  percent uptake relative to control, Cho BCH: 95±4%
9L gliosarcoma cells; sodium-free choline buffer, sucrose 10 mM, relative to sodium control (FIG. 3/5)
  percent uptake relative to control, Cho sucrose: 107±14%
[1]; 5 min after i.v. injection
  biodistribution: blood: 0.90 ± 0.166 % ID/g
  biodistribution: bone: 0.32 ± 0.083 % ID/g
  biodistribution: brain: 0.09 ± 0.015 % ID/g
  biodistribution: fat: 0.10 ± 0.044 % ID/g
  biodistribution: heart: 0.42 ± 0.076 % ID/g
  biodistribution: kidney: 14.01 ± 3.826 % ID/g
  biodistribution: large intestine: 0.15 ± 0.043 % ID/g
  biodistribution: liver: 0.54 ± 0.153 % ID/g
  biodistribution: lung: 0.74 ± 0.143 % ID/g
  biodistribution: muscle: 0.18 ± 0.049 % ID/g
  biodistribution: pancreas: 0.53 ± 0.126 % ID/g
  biodistribution: salivary gland: 0.46 ± 0.083 % ID/g
  biodistribution: small intestine: 0.32 ± 0.079 % ID/g
  biodistribution: spleen: 0.33 ± 0.065 % ID/g
  biodistribution: testes: 0.18 ± 0.042 % ID/g
  biodistribution: thyroid: 0.64 ± 0.092% of total dose per organ
  biodistribution: tumor: 0.27 ± 0.042 % ID/g
  tumor:brain ratio: 3.2
[1]; 30 min after i.v. injection
  biodistribution: blood: 0.28 ± 0.037 % ID/g
  biodistribution: bone: 0.13 ± 0.027 % ID/g
  biodistribution: brain: 0.04 ± 0.005 % ID/g
  biodistribution: fat: 0.03 ± 0.012 % ID/g
  biodistribution: heart: 0.13 ± 0.014 % ID/g
  biodistribution: kidney: 6.76 ± 0.830 % ID/g
  biodistribution: large intestine: 0.08 ± 0.060 % ID/g
  biodistribution: liver: 0.58 ± 0.074 % ID/g
  biodistribution: lung: 0.54 ± 0.211 % ID/g
  biodistribution: muscle: 0.08 ± 0.020 % ID/g
  biodistribution: pancreas: 0.50 ± 0.105 % ID/g
  biodistribution: salivary gland: 0.20 ± 0.016 % ID/g
  biodistribution: small intestine: 0.30 ± 0.154 % ID/g
  biodistribution: spleen: 0.18 ± 0.004 % ID/g
  biodistribution: testes: 0.08 ± 0.011 % ID/g
  biodistribution: thyroid: 0.21 ± 0.023% of total dose per organ
  biodistribution: tumor: 0.29 % ID/g and 0.29 ± 0.132 % ID/g
  tumor:brain ratio: 8.8
[1]; 60 min after i.v. injection
  biodistribution: blood: 0.14 ± 0.015 % ID/g
  biodistribution: bone: 0.08 ± 0.007 % ID/g
  biodistribution: brain: 0.02 ± 0.001 % ID/g
  biodistribution: fat: 0.02 ± 0.002 % ID/g
  biodistribution: heart: 0.08 ± 0.006 % ID/g
  biodistribution: kidney: 2.39 ± 0.138 % ID/g
  biodistribution: large intestine: 0.05 ± 0.002 % ID/g
  biodistribution: liver: 0.48 ± 0.023 % ID/g
  biodistribution: lung: 0.37 ± 0.100 % ID/g
  biodistribution: muscle: 0.05 ± 0.006 % ID/g
  biodistribution: pancreas: 0.43 ± 0.063 % ID/g
  biodistribution: salivary gland: 0.15 ± 0.009 % ID/g
  biodistribution: small intestine: 0.35 ± 0.015 % ID/g
  biodistribution: spleen: 0.14 ± 0.002 % ID/g
  biodistribution: testes: 0.05 ± 0.002 % ID/g
  biodistribution: thyroid: 0.12 ± 0.010% of total dose per organ
  biodistribution: tumor: 0.17 ± 0.009 % ID/g
  tumor:brain ratio: 6.9
